In US6326014A, “Use of oxamate derivatives as depigmenting agents” (L, Oreal, priority 1997, dated 2001):

Test system: co-culture of keratinocytes and melanocytes
Assay: Depigmenting activity: inhibition of melanogenesis in co-culture of keratinocytes and melanocytes
Assay type: cell-based
Conditions: for IC50: keratinocyte/melanocyte co-culture, read-out: IC50 (50% inhibition of melanogenesis)
Experimental: This test corresponds to the one described in patent FR 2,734,825 filed by the Applicant, as well as in the article by R. Schmidt, P. […], Anal. Biochem., 235(2), 113-18, (1996), the entire contents of each of which are hereby incorporated by reference. […] For each test compound, the IC50 value, which corresponds to the micromolar concentration (μM) for which a 50% inhibition of melanogenesis is observed, is determined. Moreover, a class is given to each of these compounds as regards their maximum depigmenting activity: […]

| IC50 [µM] | Structure (SMILES) | Class (maximum depigmenting activity) (at 500 μM) | Class (maximum depigmenting activity) (at 50 μM) | Class (maximum depigmenting activity) (at 10 μM) |
| --- | --- | --- | --- | --- |
| 500 | O=c1cc(CO)occ1O [Kojic acid, reference compound] | 2 (30 to 60% inhibition of melanogenesis relative to the control (same experiment without test compound)) | – | – |
| 10 | CCOC(=O)C(=O)Nc1ccc(O)cc1 [Example 1, Ethyl N-(4-hydroxyphenyl)oxamate] | – | 3 (60 to 100% inhibition of melanogenesis relative to the control (same experiment without test compound)) | – |
| 10 | O=C(NC[C@H](O)[C@@H](O)[C@H](O)[C@H](O)CO)C(=O)Nc1ccc(O)cc1 [Example 2, N-(4-hydroxyphenyl)-N'-(D-glucamino)oxamide] | – | – | 2 (30 to 60% inhibition of melanogenesis relative to the control (same experiment without test compound)) |
